From the supplement of paper PMC12205070
± gives the standard deviation of the averaged measurements.

Assays:
Assay in all cases: normalised number of viable cells after treatment (fraction of control); higher = more viable cells (less drug effect)
[1] = system: P10 Relapse (T-ALL xenograft cells from relapse)
Method: (§1)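 T-ALL PDX-derived cells (initial diagnosis or relapse samples of individual patients) co-cultured on hTERT-immortalized bone marrow MSCs in 384-well plates were treated with Cytarabine, Venetoclax, S-63845, A1331852 or FX1 (0.1 nM to 10,000 nM) for 72 h.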

[2] = system: P10 Initial (T-ALL xenograft cells from diagnosis)
Method: as §1

[3] = system: P6 Initial (T-ALL xenograft cells from diagnosis)
Method: as §1

[4] = system: P2 Relapse (T-ALL xenograft cells from relapse)
Method: as §1

[5] = system: P6 Relapse (T-ALL xenograft cells from relapse)
Method: as §1

[6] = system: P12 Initial (T-ALL xenograft cells from diagnosis)
Method: as §1

[7] = system: P8 Initial (T-ALL xenograft cells from diagnosis)
Method: as §1

[8] = system: P1 Initial (T-ALL xenograft cells from diagnosis)
Method: as §1

[9] = system: P8 Relapse (T-ALL xenograft cells from relapse)
Method: as §1

[10] = system: P3 Relapse (T-ALL xenograft cells from relapse)
Method: as §1

[11] = system: P1 Relapse (T-ALL xenograft cells from relapse)
Method: as §1

[12] = system: P12 Relapse (T-ALL xenograft cells from relapse)
Method: as §1

[13] = system: P2 Initial (T-ALL xenograft cells from diagnosis)
Method: as §1

[14] = system: P3 Initial (T-ALL xenograft cells from diagnosis)
Method: as §1

Structure (SMILES): Nc1ccn([C@@H]2O[C@H](CO)[C@@H](O)[C@@H]2O)c(=O)n1 [Cytarabine]
- normalised number of viable cells ([1]; 0.998752 nM): 1.08 ± 0.024
- normalised number of viable cells ([1]; 9.98752 nM): 1
- normalised number of viable cells ([1]; 99.8752 nM): 0.737 ± 0.017
- normalised number of viable cells ([1]; 998.752 nM): 0.712 ± 0.074
- normalised number of viable cells ([1]; 9987.52 nM): 0.679 ± 0.043
- normalised number of viable cells ([2]; 0.998752 nM): 1.45 ± 0.033
- normalised number of viable cells ([2]; 9.98752 nM): 1.4
- normalised number of viable cells ([2]; 99.8752 nM): 0.472 ± 0.02
- normalised number of viable cells ([2]; 998.752 nM): 0.426 ± 0.13
- normalised number of viable cells ([2]; 9987.52 nM): 0.427 ± 0.085
- normalised number of viable cells ([3]; 0.998752 nM): 0.95 ± 0.28
- normalised number of viable cells ([3]; 9.98752 nM): 0.6575 ± 0.005
- normalised number of viable cells ([3]; 99.8752 nM): 0.454 ± 0.1
- normalised number of viable cells ([3]; 998.752 nM): 0.248 ± 0.037
- normalised number of viable cells ([3]; 9987.52 nM): 0.239 ± 0.0092
- normalised number of viable cells ([4]; 0.998752 nM): 0.981 ± 0.025
- normalised number of viable cells ([4]; 9.98752 nM): 0.99 ± 0.35
- normalised number of viable cells ([4]; 99.8752 nM): 0.973 ± 0.15
- normalised number of viable cells ([4]; 998.752 nM): 0.804 ± 0.22
- normalised number of viable cells ([4]; 9987.52 nM): 0.61 ± 0.17
- normalised number of viable cells ([5]; 0.998752 nM): 0.745 ± 1.1
- normalised number of viable cells ([5]; 9.98752 nM): 1.28 ± 0.17
- normalised number of viable cells ([5]; 99.8752 nM): 1.18 ± 0.11
- normalised number of viable cells ([5]; 998.752 nM): 0.902 ± 0.15
- normalised number of viable cells ([5]; 9987.52 nM): 0.852 ± 0.028
- normalised number of viable cells ([6]; 0.998752 nM): 1.33 ± 0.02
- normalised number of viable cells ([6]; 9.98752 nM): 1.2
- normalised number of viable cells ([6]; 99.8752 nM): 0.327 ± 0.044
- normalised number of viable cells ([6]; 998.752 nM): 0.313 ± 0.067
- normalised number of viable cells ([6]; 9987.52 nM): 0.593 ± 0.16
- normalised number of viable cells ([7]; 0.998752 nM): 1.67 ± 0.39
- normalised number of viable cells ([7]; 9.98752 nM): 1.54
- normalised number of viable cells ([7]; 99.8752 nM): 0.489 ± 0.1
- normalised number of viable cells ([7]; 998.752 nM): 0.4715 ± 0.0021
- normalised number of viable cells ([7]; 9987.52 nM): 0.577 ± 0.12
- normalised number of viable cells ([8]; 0.125 nM): 0.988 ± 0.23
- normalised number of viable cells ([8]; 1 nM): 0.83 ± 0.3
- normalised number of viable cells ([8]; 12.5 nM): 0.396 ± 0.023
- normalised number of viable cells ([8]; 100 nM): 0.245 ± 0.036
- normalised number of viable cells ([8]; 1250 nM): 0.23 ± 0.026
- normalised number of viable cells ([8]; 10000 nM): 0.0865 ± 0.0092
- normalised number of viable cells ([9]; 0.998752 nM): 1.551 ± 0.0014
- normalised number of viable cells ([9]; 9.98752 nM): 1.57
- normalised number of viable cells ([9]; 99.8752 nM): 0.744 ± 0.09
- normalised number of viable cells ([9]; 998.752 nM): 0.821 ± 0.1
- normalised number of viable cells ([9]; 9987.52 nM): 0.599 ± 0.1
- normalised number of viable cells ([10]; 0.998752 nM): 1.14 ± 0.11
- normalised number of viable cells ([10]; 9.98752 nM): 0.684 ± 0.086
- normalised number of viable cells ([10]; 99.8752 nM): 0.464 ± 0.045
- normalised number of viable cells ([10]; 998.752 nM): 0.306 ± 0.0014
- normalised number of viable cells ([10]; 9987.52 nM): 0.143 ± 0.0071
- normalised number of viable cells ([11]; 0.125 nM): 0.84 ± 0.16
- normalised number of viable cells ([11]; 1 nM): 0.683 ± 0.11
- normalised number of viable cells ([11]; 12.5 nM): 0.426 ± 0.043
- normalised number of viable cells ([11]; 100 nM): 0.354 ± 0.12
- normalised number of viable cells ([11]; 1250 nM): 0.235 ± 0.018
- normalised number of viable cells ([11]; 10000 nM): 0.224 ± 0.016
- normalised number of viable cells ([12]; 0.998752 nM): 4.13 ± 0.71
- normalised number of viable cells ([12]; 9.98752 nM): 5.01
- normalised number of viable cells ([12]; 99.8752 nM): 1.49 ± 0.24
- normalised number of viable cells ([12]; 998.752 nM): 0.76 ± 0.0057
- normalised number of viable cells ([12]; 9987.52 nM): 0.446 ± 0.047
- normalised number of viable cells ([13]; 0.998752 nM): 1.83 ± 0.23
- normalised number of viable cells ([13]; 9.98752 nM): 1.97 ± 0.16
- normalised number of viable cells ([13]; 99.8752 nM): 0.894 ± 0.11
- normalised number of viable cells ([13]; 998.752 nM): 0.683 ± 0.091
- normalised number of viable cells ([13]; 9987.52 nM): 0.631 ± 0.26
- normalised number of viable cells ([14]; 0.998752 nM): 1.04 ± 0.13
- normalised number of viable cells ([14]; 9.98752 nM): 0.855 ± 0.12
- normalised number of viable cells ([14]; 99.8752 nM): 0.14 ± 0.0057
- normalised number of viable cells ([14]; 998.752 nM): 0.0925 ± 0.0035
- normalised number of viable cells ([14]; 9987.52 nM): 0.0805 ± 0.00071

Structure (SMILES): CC1(C)CCC(CN2CCN(c3ccc(C(=O)NS(=O)(=O)c4ccc(NCC5CCOCC5)c([N+](=O)[O-])c4)c(Oc4cnc5[nH]ccc5c4)c3)CC2)=C(c2ccc(Cl)cc2)C1 [Venetoclax]
- normalised number of viable cells ([1]; 0.998752 nM): 0.866 ± 0.054
- normalised number of viable cells ([1]; 9.98752 nM): 1.17
- normalised number of viable cells ([1]; 99.8752 nM): 0.717 ± 0.088
- normalised number of viable cells ([1]; 998.752 nM): 0.313 ± 0.014
- normalised number of viable cells ([1]; 9987.52 nM): 0.13 ± 0.0085
- normalised number of viable cells ([2]; 0.998752 nM): 1.39 ± 0.075
- normalised number of viable cells ([2]; 9.98752 nM): 1.41 ± 0.013
- normalised number of viable cells ([2]; 99.8752 nM): 0.954 ± 0.054
- normalised number of viable cells ([2]; 998.752 nM): 0.665 ± 0.087
- normalised number of viable cells ([2]; 9987.52 nM): 0.21 ± 0.036
- normalised number of viable cells ([3]; 0.998752 nM): 1.17 ± 0.061
- normalised number of viable cells ([3]; 9.98752 nM): 0.743 ± 0.27
- normalised number of viable cells ([3]; 99.8752 nM): 0.5415 ± 0.0021
- normalised number of viable cells ([3]; 998.752 nM): 0.355 ± 0.086
- normalised number of viable cells ([3]; 9987.52 nM): 0.269 ± 0.0042
- normalised number of viable cells ([4]; 0.998752 nM): 1.16 ± 0.069
- normalised number of viable cells ([4]; 9.98752 nM): 1.37 ± 0.31
- normalised number of viable cells ([4]; 99.8752 nM): 1.19 ± 0.13
- normalised number of viable cells ([4]; 998.752 nM): 0.933 ± 0.0099
- normalised number of viable cells ([4]; 9987.52 nM): 0.412 ± 0.044
- normalised number of viable cells ([5]; 0.998752 nM): 1.31 ± 0.23
- normalised number of viable cells ([5]; 9.98752 nM): 1.12 ± 0.059
- normalised number of viable cells ([5]; 99.8752 nM): 0.554 ± 0.11
- normalised number of viable cells ([5]; 998.752 nM): 0.584 ± 0.025
- normalised number of viable cells ([5]; 9987.52 nM): 0.169 ± 0.036
- normalised number of viable cells ([6]; 0.998752 nM): 1.15 ± 0.017
- normalised number of viable cells ([6]; 9.98752 nM): 1.21
- normalised number of viable cells ([6]; 99.8752 nM): 0.923 ± 0.12
- normalised number of viable cells ([6]; 998.752 nM): 0.978 ± 0.099
- normalised number of viable cells ([6]; 9987.52 nM): 0.0715 ± 0.005
- normalised number of viable cells ([7]; 0.998752 nM): 2.58 ± 0.14
- normalised number of viable cells ([7]; 9.98752 nM): 2.56 ± 0.32
- normalised number of viable cells ([7]; 99.8752 nM): 2.09 ± 0.27
- normalised number of viable cells ([7]; 998.752 nM): 1.89 ± 0.035
- normalised number of viable cells ([7]; 9987.52 nM): 2.3 ± 0.53
- normalised number of viable cells ([8]; 0.125 nM): 1 ± 0.17
- normalised number of viable cells ([8]; 1 nM): 0.841 ± 0.079
- normalised number of viable cells ([8]; 12.5 nM): 0.423 ± 0.026
- normalised number of viable cells ([8]; 100 nM): 0.345 ± 0.059
- normalised number of viable cells ([8]; 1250 nM): 0.259 ± 0.057
- normalised number of viable cells ([8]; 10000 nM): 0.0865 ± 0.0064
- normalised number of viable cells ([9]; 0.998752 nM): 1.21 ± 0.084
- normalised number of viable cells ([9]; 9.98752 nM): 1.24
- normalised number of viable cells ([9]; 99.8752 nM): 1.02 ± 0.13
- normalised number of viable cells ([9]; 998.752 nM): 0.744 ± 0.021
- normalised number of viable cells ([9]; 9987.52 nM): 0.732 ± 0.11
- normalised number of viable cells ([10]; 0.998752 nM): 1.18 ± 0.17
- normalised number of viable cells ([10]; 9.98752 nM): 1.15 ± 0.054
- normalised number of viable cells ([10]; 99.8752 nM): 1.104 ± 0.0014
- normalised number of viable cells ([10]; 998.752 nM): 0.922 ± 0.022
- normalised number of viable cells ([10]; 9987.52 nM): 0.072 ± 0.03
- normalised number of viable cells ([11]; 0.125 nM): 1.02 ± 0.065
- normalised number of viable cells ([11]; 1 nM): 0.911 ± 0.3
- normalised number of viable cells ([11]; 12.5 nM): 0.504 ± 0.15
- normalised number of viable cells ([11]; 100 nM): 0.781 ± 0.25
- normalised number of viable cells ([11]; 1250 nM): 0.352 ± 0.061
- normalised number of viable cells ([11]; 10000 nM): 0.694 ± 0.0028
- normalised number of viable cells ([12]; 0.998752 nM): 5.7 ± 0.48
- normalised number of viable cells ([12]; 9.98752 nM): 4.1
- normalised number of viable cells ([12]; 99.8752 nM): 4.2 ± 0.59
- normalised number of viable cells ([12]; 998.752 nM): 4.43 ± 0.13
- normalised number of viable cells ([12]; 9987.52 nM): 0.845 ± 0.74
- normalised number of viable cells ([13]; 0.998752 nM): 1.58 ± 0.44
- normalised number of viable cells ([13]; 9.98752 nM): 1.09 ± 0.15
- normalised number of viable cells ([13]; 99.8752 nM): 0.725 ± 0.17
- normalised number of viable cells ([13]; 998.752 nM): 0.56 ± 0.18
- normalised number of viable cells ([13]; 9987.52 nM): 0.514 ± 0.33
- normalised number of viable cells ([14]; 0.998752 nM): 0.948 ± 0.084
- normalised number of viable cells ([14]; 9.98752 nM): 0.925 ± 0.015
- normalised number of viable cells ([14]; 99.8752 nM): 0.814 ± 0.023
- normalised number of viable cells ([14]; 998.752 nM): 0.821 ± 0.04
- normalised number of viable cells ([14]; 9987.52 nM): 0.139 ± 0.026
